Reference: paper PMC8072580, “Predicting Pharmacokinetic Properties of Potential Anticancer Agents via Their Chromatographic Behavior on Different Reversed Phase Materials” (International Journal of Molecular Sciences, 2021)
Where two headings read alike, the source gives them in different places.

Legend:
human cancer cells = tested on: human cancer cells; parameters: method as in PMID 31864156, PMID 16545495, PMID 25528370; conditions: cited from earlier work
[1] = parameters: method as in PMID 31864156; conditions: end-capped ODS column, aqueous acetonitrile; cited from earlier work
[2] = parameters: method as in PMID 31864156; conditions: IAM.PC.DD2 column, buffered acetonitrile; cited from earlier work
[3] = Micellar liquid chromatography (MLC), ODS-2 column, Brij 35 effluent: chromatographic lipophilicity; format: physicochemical; conditions: pH 7.4, ODS-2 column, 25 °C
Text: There are several theories that describe the effect of the concentration of the surfactant in the effluent on the retention of the solute in MLC [23]. The following Foley’s equation is best known in lipophilicity studies:(2) 1/k=1/km+KAM/km[M] where [M] is the total concentration of the surfactant in the mobile phase minus CMC; KAM is the constant that describes solute-micelle binding; and km is the solute retention parameter at the micellar concentration of zero, i.e., when the concentration of the surfactant monomer is equal to CMC. The KAM and km parameters can be evaluated from the slope and intercept of the experimental 1/k vs. [M] relationships.
Equation (2) describes a linear dependence between decreasing retention and increasing micelle concentration. This equation is valid for aqueous solutions of surfactant or mobile phases with the same concentrations of the organic modifier. The micellar retention parameter, log km, is considered analogous to the log kw parameter evaluated in RPLC. According to the information presented above, this parameter is considered to be a lipophilicity descriptor, and Equation (2) is a simple way to indirectly determine the lipophilic properties of compounds. It is postulated that retention in micellar chromatography depends on hydrophobic (lipophilic), electronic, and steric features of the compounds in a similar way as has been noted concerning pharmacokinetic phenomena. The additional similarity results from the fact that the phospholipids, cholesterol, fatty acids, and triglycerides included in the extracellular and intracellular fluids also form micelles with proteins.
(§1) In our investigations, the micellar retention factors were used to calculate the log km parameters using Equation (2) (Table 2). For all of the compounds 1-19, the relationships of 1/k vs. [M] were obtained with very good linearity, confirming that Foley’s equation correctly describes the effect of the concentration of the surfactant in the effluent on the retention of the solute. In our studies, the micellar log km parameters for three pharmacologically active sets of compounds 1-6, 7-14, and 15-19 and the log k factors for solutes 15-19 obtained on IAM and end-capped ODS stationary phases were determined experimentally. All these retention factors, together with the log kw values for compounds 1-14 obtained in our earlier investigations on IAM and end-capped ODS stationary phases, were used as lipophilicity descriptors in the QSARs methodology to predict the pharmacokinetic descriptors of the compounds that were tested.
(§2) Shimadzu Vp (Shimadzu, Izabelin, Polska) liquid chromatographic system was used in HPLC measurements. It was equipped with an LC 10AT pump, SPD 10A UV–Vis detector, SCL 10A system controller, CTO-10 AS chromatographic oven, and Rheodyne injector valve with a 20 μL loop. As the stationary phases, 3 different revered-phase materials were applied: Spherisorb ODS-2 column, 125 × 4 mm i.d., 5 μm (Merck, Lublin, Poland), Regis IAM.PC.DD2 column, 100 × 4.6 mm i.d., 10 μm (Morton Grove, Illinois, USA), and Purosphere RP-18e column, 125 × 4 mm i.d., 5 μm (Merck, Lublin, Poland).
In the MLC technique with an ODS-2 column, buffered Brij 35 mixtures (0.15; 0.125, 0.10, and 0.075 mol/L) with 7% (v/v) addition of isopropanol were used as mobile phases. The buffer was prepared from 0.01 mol/L solutions of Na2HPO4 and citric acid, and the pH 7.4 value was fixed before mixing with an organic modifier. The flow rate was 1 mL/min. Buffered acetonitrile mixtures were used as effluents with the IAM column. Acetonitrile concentration, expressed as a volume fraction, was changed in the range of 0.2–0.5, with the constant step of 0.1. The flow rate was 1.3 mL/min. Acetonitrile concentration was changed in the range of 0.3–0.6 with the RP-18e column, with the constant step of 0.1 and flow rate of 0.1 mL/min. As solutes tested there were used 19 newly designed structurally related compounds. […]

Danio rerio = tested on: Danio rerio; parameters: method as in PMID 33390035; conditions: cited from earlier work
[4] = Immobilized artificial membrane (IAM.PC.DD2) chromatography: log kw,IAM; format: physicochemical; conditions: IAM.PC.DD2 column, buffered acetonitrile 0.2-0.5, 25 °C
Text: as §1, §2
(§3) In the MLC technique with an ODS-2 column, buffered Brij 35 mixtures (0.15; 0.125, 0.10, and 0.075 mol/L) with 7% (v/v) addition of isopropanol were used as mobile phases. The buffer was prepared from 0.01 mol/L solutions of Na2HPO4 and citric acid, and the pH 7.4 value was fixed before mixing with an organic modifier. The flow rate was 1 mL/min. Buffered acetonitrile mixtures were used as effluents with the IAM column. Acetonitrile concentration, expressed as a volume fraction, was changed in the range of 0.2–0.5, with the constant step of 0.1. The flow rate was 1.3 mL/min. Acetonitrile concentration was changed in the range of 0.3–0.6 with the RP-18e column, with the constant step of 0.1 and flow rate of 0.1 mL/min. As solutes tested there were used 19 newly designed structurally related compounds. Samples were dissolved in acetonitrile c.a. 0.005 mg/mL. The compounds were detected under UV light at λmax 254 nm. All measurements were carried out at a constant temperature (25 °C). The dead time values were measured from non-retained compound (e.g., sodium chloride) peaks. All reported k values are the average of at least 3 independent measurements.

[5] = End-capped ODS (RP-18e) column chromatography: log kw,ODS; format: physicochemical; conditions: acetonitrile 0.3-0.6, 25 °C
Text: as §1, §2, §3

[6] = 0.075 M Brij 35, 7% isopropanol
[7] = 0.125 M Brij 35, 7% isopropanol

SMILES | antiproliferative effects in cancer cells compared with normal cells (human cancer cells) | log kw,ODS [1] | log kw,IAM [2] | k (MLC retention factor) [3, 6] | k (MLC retention factor) ([3]; 0.1 M Brij 35, 7% isopropanol) | k (MLC retention factor) [3, 7] | k (MLC retention factor) ([3]; 0.15 M Brij 35, 7% isopropanol) | safety for early life stages of Danio rerio compared with pemetrexed (Danio rerio) | log kw,IAM [4] | log kw,ODS [5]
Cc1ccccc1N1CCn2c1nnc(C(F)(F)F)c2=O [Compound 8] | clearly higher antiproliferative effects in cancer cells than in normal cells | 1.81 [19] | 0.76 [19] | 6.50 | 5.97 | 5.52 | 5.28 | safer for the early life stages of Danio rerio than pemetrexed | – | –
O=c1c(C(F)(F)F)nnc2n1CCN2c1ccccc1 [Compound 7] | – | 1.92 [19] | 0.94 [19] | 14.11 | 12.22 | 10.72 | 10.02 | safer for the early life stages of Danio rerio than pemetrexed | – | –
CCOC(=O)c1nnc2n(c1=O)CCN2c1cccc(Cl)c1 [Compound 17] | clearly higher antiproliferative effects in cancer cells than in normal cells | – | – | 10.12 | 8.72 | 8.00 | 8.00 | – | 1.73 | 2.62
